Data as given in US9187471B2, “Pyrido [4,3-b] indole and pyrido [3,4-b] indole derivatives and methods of use” (Medivation Technologies, Inc., priority 2010, dated 2015).

How the values were obtained:
[1] = molecular target: T1, human recombinant serotonin (5-Hydroxytryptamine) 5-HT5A receptor (Homo sapiens, UniProt P47898); assay: Serotonin 5-HT5A radioligand binding ([3H]LSD); details: compound at 0.1 μM; read-out: Inhibition of ligand binding, Serotonin 5-HT5A (percent inhibition of specific binding)
T1 construct: expressed in transfected cells; host or cells: CHO-K1
Description: Compounds of the invention were incubated with 1.7 nM [^3H]Lysergic acid diethylamide (LSD) for 60 min at 37° C. […] Receptor proteins were filtered and washed, the filters were counted to determine [^3H]LSD specifically bound.

[2] = molecular target: T2, rat adrenergic α1A receptor (Rattus norvegicus, UniProt P43140); assay: Adrenergic α1A radioligand binding ([3H]Prazosin); details: read-out: Adrenergic (0.1 μM) a1A, percent inhibition of specific binding; compound at 0.1 μM; 0.25 nM [3H]Prazosin
T2 construct: rat adrenergic α1A receptor obtained from Wistar Rat submaxillary glands; from tissue; host or cells: Wistar rat submaxillary glands
T2 sequence (P43140 1-466): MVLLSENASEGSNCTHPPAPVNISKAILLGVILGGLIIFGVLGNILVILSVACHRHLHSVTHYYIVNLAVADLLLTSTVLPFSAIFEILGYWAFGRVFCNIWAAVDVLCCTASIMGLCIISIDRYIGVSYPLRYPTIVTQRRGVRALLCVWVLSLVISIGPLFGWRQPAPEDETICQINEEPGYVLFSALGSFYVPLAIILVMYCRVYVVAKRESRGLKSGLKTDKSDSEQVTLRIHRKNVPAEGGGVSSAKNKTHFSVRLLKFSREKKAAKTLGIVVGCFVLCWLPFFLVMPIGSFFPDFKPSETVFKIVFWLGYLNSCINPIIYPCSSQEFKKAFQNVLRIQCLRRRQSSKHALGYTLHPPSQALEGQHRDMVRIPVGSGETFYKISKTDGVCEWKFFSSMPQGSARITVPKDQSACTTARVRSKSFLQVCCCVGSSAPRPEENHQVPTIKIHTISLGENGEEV
Procedure, shortened: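 Wistar rat submaxillary gland receptor in 50 mM Tris-HCl pH 7.4 with 0.5 mM EDTA, incubated with compound and 0.25 nM [3H]Prazosin for 60 min at 25 °C.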

[3] = molecular target: T3, human recombinant histamine H1 receptor (Homo sapiens, UniProt P35367); assay: Histamine H1 radioligand binding ([3H]Pyrilamine); details: read-out: Histamine H1 Binding (1 μM), percent inhibition of specific binding; compound at 1 μM; 1.2 nM [3H]Pyrilamine
T3 construct: expressed in transfected cells; host or cells: CHO-K1
Procedure, shortened: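 Human recombinant H1 receptor expressed in CHO-K1 cells, in 50 mM Tris-HCl pH 7.4 with 2 mM MgCl2, 100 mM NaCl, 250 mM sucrose. Non-specific binding defined with 1 μM pyrilamine; bound [3H]pyrilamine counted after filtration and washing. Values are percent inhibition of specific binding.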

[4] = molecular target: T4, human recombinant dopamine D2L receptor (Homo sapiens, UniProt P14416); assay: Dopamine D2L radioligand binding ([3H]Spiperone); details: read-out: Dopamine D2L (1 μM), percent inhibition of specific binding; compound at 1 μM; 0.16 nM [3H]Spiperone
T4 construct: expressed in transfected cells; host or cells: CHO
Description: Non-specific binding was estimated in the presence of 10 μM Haloperidol. Receptor proteins were filtered and washed, the filters were then counted to determine [^3H]Spiperone specifically bound.

[5] = molecular target: T5, human recombinant serotonin (5-Hydroxytryptamine) 5-HT6 receptor (Homo sapiens, UniProt P50406); assay: Serotonin 5-HT6 radioligand binding ([3H]LSD); details: compound at 0.1 μM; read-out: Inhibition of ligand binding, Serotonin 5-HT6 (percent inhibition of specific binding)
T5 construct: expressed in transfected cells; host or cells: HeLa
Excerpt: Receptor proteins were filtered and washed, the filters were then counted to determine [3H]LSD specifically bound.

[6] = molecular target: T6, human recombinant serotonin (5-Hydroxytryptamine) 5-HT7 receptor (Homo sapiens, UniProt P34969); assay: Serotonin 5-HT7 radioligand binding ([3H]LSD); details: compound at 0.1 μM; read-out: Inhibition of ligand binding, Serotonin 5-HT7 (percent inhibition of specific binding)
T6 construct: expressed in transfected cells; host or cells: CHO
Description: Lysergic acid diethylamide (LSD) for 120 min. at 25° C. […] Receptor proteins were filtered and washed, the filters were then counted to determine [^3H]LSD specifically bound.

[7] = molecular target: T7, human recombinant adrenergic α2C receptor (Homo sapiens, UniProt P18825); assay: Adrenergic α2C radioligand binding ([3H]MK-912); details: read-out: Adrenergic (0.1 μM) a2C, percent inhibition of specific binding; compound at 0.1 μM; 1 nM [3H]MK-912
T7 construct: expressed in transfected cells; host or cells: insect Sf9 cells
T7 sequence (P18825 1-462): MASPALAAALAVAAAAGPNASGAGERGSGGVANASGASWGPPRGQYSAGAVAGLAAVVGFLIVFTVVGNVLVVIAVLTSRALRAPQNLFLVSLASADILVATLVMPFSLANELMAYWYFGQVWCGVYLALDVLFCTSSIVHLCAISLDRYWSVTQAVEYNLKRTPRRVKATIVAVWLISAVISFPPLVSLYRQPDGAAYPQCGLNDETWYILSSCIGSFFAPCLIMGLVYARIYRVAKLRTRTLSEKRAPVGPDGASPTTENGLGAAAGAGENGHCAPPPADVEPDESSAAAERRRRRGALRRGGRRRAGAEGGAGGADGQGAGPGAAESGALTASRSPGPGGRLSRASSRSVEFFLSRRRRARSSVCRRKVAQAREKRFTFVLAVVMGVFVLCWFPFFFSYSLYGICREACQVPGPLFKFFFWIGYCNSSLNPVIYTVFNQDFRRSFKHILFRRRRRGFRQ
Procedure, shortened: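 Membranes from Sf9 cells expressing the human receptor, in 50 mM Tris-HCl pH 7.4 with 12.5 mM MgCl2 and 2 mM EDTA, incubated with compound and 1 nM [3H]MK-912 for 60 min at 25 °C. Non-specific binding defined with 10 μM WB-4101. Filter-bound radioactivity counted; percent inhibition of specific binding reported.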

T3 sequence (P35367 whole entry): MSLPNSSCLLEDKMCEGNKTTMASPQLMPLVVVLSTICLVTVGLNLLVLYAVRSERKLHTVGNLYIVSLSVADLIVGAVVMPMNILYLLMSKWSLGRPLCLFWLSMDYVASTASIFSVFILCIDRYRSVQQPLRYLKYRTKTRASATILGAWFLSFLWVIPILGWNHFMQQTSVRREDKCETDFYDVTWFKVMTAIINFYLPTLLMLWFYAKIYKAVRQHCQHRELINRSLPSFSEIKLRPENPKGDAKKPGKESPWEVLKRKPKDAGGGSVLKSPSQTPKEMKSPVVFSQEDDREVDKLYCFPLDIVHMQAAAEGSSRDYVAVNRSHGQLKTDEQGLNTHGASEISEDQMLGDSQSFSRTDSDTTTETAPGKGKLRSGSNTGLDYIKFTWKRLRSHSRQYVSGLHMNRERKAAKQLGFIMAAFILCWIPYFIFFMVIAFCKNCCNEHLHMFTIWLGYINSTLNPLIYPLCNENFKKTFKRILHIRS
T1 sequence (P47898 whole entry): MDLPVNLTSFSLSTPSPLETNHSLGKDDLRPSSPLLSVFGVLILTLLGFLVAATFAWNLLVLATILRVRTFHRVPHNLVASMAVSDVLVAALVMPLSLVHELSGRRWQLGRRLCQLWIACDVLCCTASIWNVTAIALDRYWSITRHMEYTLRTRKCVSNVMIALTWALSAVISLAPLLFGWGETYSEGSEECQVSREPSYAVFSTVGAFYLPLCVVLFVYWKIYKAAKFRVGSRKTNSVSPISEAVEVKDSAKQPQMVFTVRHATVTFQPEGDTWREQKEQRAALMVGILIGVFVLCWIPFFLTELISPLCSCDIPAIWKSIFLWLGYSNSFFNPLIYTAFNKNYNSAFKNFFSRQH
T6 sequence (P34969 whole entry): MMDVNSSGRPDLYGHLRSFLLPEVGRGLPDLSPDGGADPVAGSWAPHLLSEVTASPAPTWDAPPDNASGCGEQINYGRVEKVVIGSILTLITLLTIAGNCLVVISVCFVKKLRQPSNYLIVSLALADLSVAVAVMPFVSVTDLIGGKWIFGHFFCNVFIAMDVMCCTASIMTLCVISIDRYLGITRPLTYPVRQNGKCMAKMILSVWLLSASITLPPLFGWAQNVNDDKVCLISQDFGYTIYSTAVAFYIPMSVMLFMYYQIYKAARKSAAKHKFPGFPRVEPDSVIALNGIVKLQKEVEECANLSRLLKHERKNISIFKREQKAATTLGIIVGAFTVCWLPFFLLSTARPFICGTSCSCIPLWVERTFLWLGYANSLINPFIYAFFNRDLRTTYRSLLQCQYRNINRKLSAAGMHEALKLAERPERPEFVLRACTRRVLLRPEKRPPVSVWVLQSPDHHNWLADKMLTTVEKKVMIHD
T5 sequence (P50406 whole entry): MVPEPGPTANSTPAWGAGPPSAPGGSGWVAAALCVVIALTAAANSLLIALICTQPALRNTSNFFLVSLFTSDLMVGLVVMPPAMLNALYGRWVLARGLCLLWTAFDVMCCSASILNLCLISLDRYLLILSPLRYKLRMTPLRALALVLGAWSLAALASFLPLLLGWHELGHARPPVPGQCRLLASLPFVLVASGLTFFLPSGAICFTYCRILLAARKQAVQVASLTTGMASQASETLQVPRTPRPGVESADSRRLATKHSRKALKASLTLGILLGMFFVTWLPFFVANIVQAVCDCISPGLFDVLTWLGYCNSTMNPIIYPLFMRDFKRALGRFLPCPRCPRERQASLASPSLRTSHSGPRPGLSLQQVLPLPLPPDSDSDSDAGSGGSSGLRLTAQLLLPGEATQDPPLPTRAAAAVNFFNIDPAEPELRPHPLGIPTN
T4 sequence (P14416 whole entry): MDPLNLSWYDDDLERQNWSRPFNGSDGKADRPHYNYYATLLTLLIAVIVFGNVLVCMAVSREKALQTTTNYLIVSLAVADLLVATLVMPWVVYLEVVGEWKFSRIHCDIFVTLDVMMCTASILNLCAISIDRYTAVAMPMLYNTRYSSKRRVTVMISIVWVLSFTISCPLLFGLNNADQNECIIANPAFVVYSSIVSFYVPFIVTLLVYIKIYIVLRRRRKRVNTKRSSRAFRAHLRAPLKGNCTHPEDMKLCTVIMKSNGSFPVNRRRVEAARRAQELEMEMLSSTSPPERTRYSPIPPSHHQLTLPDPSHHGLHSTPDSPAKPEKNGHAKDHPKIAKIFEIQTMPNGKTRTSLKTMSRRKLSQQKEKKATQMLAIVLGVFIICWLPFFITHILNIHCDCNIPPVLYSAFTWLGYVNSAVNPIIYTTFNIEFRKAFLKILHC

Cc1ccc2c(c1)c1c(n2-c2cccc(-c3cc4ccccc4s3)c2)CCN(C)C1 [Compound 51, 5-(3-(benzo[b]thiophen-2-yl)phenyl)-2,8-dimethyl-2,3,4,5-tetrahydro-1H-pyrido[4,3-b]indole] showed an inhibition at 0.1 µM [1] of 5%, an inhibition at 0.1 µM [2] of -6% and an inhibition at 1 µM [3] of 36%. It also gave an inhibition at 1 µM [4] of 3%, an inhibition at 0.1 µM [5] of 15% and an inhibition at 0.1 µM [6] of 13%. For the same compound, the inhibition at 0.1 µM [7] was -9%.

Compound Cc1ccc2c(c1)c1c(n2-c2cscc2-c2c(C)noc2C)CCN(C)C1 [Compound 62] has an inhibition at 0.1 µM [1] of 54%, an inhibition at 0.1 µM [2] of 9% and an inhibition at 1 µM [3] of 27%. It also gave an inhibition at 1 µM [4] of 16%, an inhibition at 0.1 µM [5] of 28% and an inhibition at 0.1 µM [6] of 48%. It also gave an inhibition at 0.1 µM [7] of 33%.

With Cc1ccc2c(c1)c1c(n2-c2ccc(-c3cnc(N(C)C)nc3)cn2)CCN(C)C1 [Compound No. 138, 5-(6-(2,8-dimethyl-3,4-dihydro-1H-pyrido[4,3-b]indol-5(2H)-yl)pyridin-3-yl)-N,N-dimethylpyrimidin-2-amine] the inhibition at 0.1 µM [1] was 13%, the inhibition at 0.1 µM [2] was 32% and the inhibition at 1 µM [3] was 7%. It also gave an inhibition at 1 µM [4] of -2%, an inhibition at 0.1 µM [5] of -6% and an inhibition at 0.1 µM [6] of 6%. For the same compound, the inhibition at 0.1 µM [7] was -2%.

With Cc1ccc2c(c1)c1c(n2-c2cccc(-c3c(C)noc3C)c2)CCN(C)C1 [Compound No. 65, 4-(3-(2,8-dimethyl-3,4-dihydro-1H-pyrido[4,3-b]indol-5(2H)-yl)phenyl)-3,5-dimethylisoxazole] the inhibition at 0.1 µM [1] was 63%, the inhibition at 0.1 µM [2] was 1% and the inhibition at 1 µM [3] was 31%. The inhibition at 1 µM [4] was 29%, the inhibition at 0.1 µM [5] was 38% and the inhibition at 0.1 µM [6] was 46%. It also gave an inhibition at 0.1 µM [7] of 8%.

Cc1ccc2c(c1)c1c(n2-c2ccccc2-c2c(C)noc2C)CCN(C)C1 [Compound No. 82, 4-(2-(2,8-dimethyl-3,4-dihydro-1H-pyrido[4,3-b]indol-5(2H)-yl)phenyl)-3,5-dimethylisoxazole] was tested, and the inhibition at 0.1 µM [1] was 9%, the inhibition at 0.1 µM [2] was 3% and the inhibition at 1 µM [3] was 18%. It also gave an inhibition at 1 µM [4] of 9%, an inhibition at 0.1 µM [5] of 14% and an inhibition at 0.1 µM [6] of 24%. For the same compound, the inhibition at 0.1 µM [7] was 7%.

Cc1csc(-c2ccccc2-n2c3c(c4cc(C)ccc42)CN(C)CC3)c1 [Compound 36] was tested, and the inhibition at 0.1 µM [1] was 50%, the inhibition at 0.1 µM [2] was -6% and the inhibition at 1 µM [3] was 16%. It also gave an inhibition at 1 µM [4] of 22%, an inhibition at 0.1 µM [5] of 13% and an inhibition at 0.1 µM [6] of 51%. It also gave an inhibition at 0.1 µM [7] of 67%.

Cc1ccc2c(c1)c1c(n2-c2ccc(-c3cccc4ccccc34)cn2)CCN(C)C1 [Compound No. 141, 2,8-dimethyl-5-(5-(naphthalen-1-yl)pyridin-2-yl)-2,3,4,5-tetrahydro-1H-pyrido[4,3-b]indole] was tested, and the inhibition at 0.1 µM [1] was 87%, the inhibition at 0.1 µM [2] was 33% and the inhibition at 1 µM [3] was 11%. It also gave an inhibition at 1 µM [4] of 15%, an inhibition at 0.1 µM [5] of 0% and an inhibition at 0.1 µM [6] of 33%. For the same compound, the inhibition at 0.1 µM [7] was 16%.

For Cc1ccc2c(c1)c1c(n2-c2cscc2-c2ccc(S(C)(=O)=O)cc2)CCN(C)C1 [Compound No. 76], the inhibition at 0.1 µM [1] was 90%, the inhibition at 0.1 µM [2] was 82% and the inhibition at 1 µM [3] was 19%. It also gave an inhibition at 1 µM [4] of 11%, an inhibition at 0.1 µM [5] of 14% and an inhibition at 0.1 µM [6] of 85%. For the same compound, the inhibition at 0.1 µM [7] was 79%.

Work on COc1ccc(-c2cscc2-n2c3c(c4cc(C)ccc42)CN(C)CC3)cc1 [Compound 37] yielded an inhibition at 0.1 µM [1] of 94%, an inhibition at 0.1 µM [2] of 82% and an inhibition at 1 µM [3] of 6%. For the same compound, the inhibition at 1 µM [4] was 18%, the inhibition at 0.1 µM [5] was 24% and the inhibition at 0.1 µM [6] was 100%. For the same compound, the inhibition at 0.1 µM [7] was 72%.

Cc1ccc2c(c1)c1c(n2-c2ccc(-c3sccc3C)cn2)CCN(C)C1 [Compound No. 148, 2,8-dimethyl-5-(5-(3-methylthiophen-2-yl)pyridin-2-yl)-2,3,4,5-tetrahydro-1H-pyrido[4,3-b]indole] showed an inhibition at 0.1 µM [1] of 50%, an inhibition at 0.1 µM [2] of 20% and an inhibition at 1 µM [3] of 5%. For the same compound, the inhibition at 1 µM [4] was 17%, the inhibition at 0.1 µM [5] was 5% and the inhibition at 0.1 µM [6] was 35%. It also gave an inhibition at 0.1 µM [7] of 4%.

Cc1ccc2c(c1)c1c(n2-c2ccccc2-c2ccc(C)nc2)CCN(C)C1 [Compound 59, 2,8-dimethyl-5-(2-(6-methylpyridin-3-yl)phenyl)-2,3,4,5-tetrahydro-1H-pyrido[4,3-b]indole] showed an inhibition at 0.1 µM [1] of 31%, an inhibition at 0.1 µM [2] of 42% and an inhibition at 1 µM [3] of 27%. The inhibition at 1 µM [4] was 13%, the inhibition at 0.1 µM [5] was 17% and the inhibition at 0.1 µM [6] was 48%. The inhibition at 0.1 µM [7] was 25%.

Compound CNC(=O)c1cc(-n2c3c(c4cc(C)ccc42)CN(C)CC3)cs1 [Compound No. 78] has an inhibition at 0.1 µM [1] of 24%, an inhibition at 0.1 µM [2] of 16% and an inhibition at 1 µM [3] of 13%. The inhibition at 1 µM [4] was 1%, the inhibition at 0.1 µM [5] was 17% and the inhibition at 0.1 µM [6] was 22%. The inhibition at 0.1 µM [7] was 3%.

Compound Cc1ccc2c(c1)c1c(n2-c2ccccc2-c2ccc(C)s2)CCN(C)C1 [Compound No. 81, 2,8-dimethyl-5-(2-(5-methylthiophen-2-yl)phenyl)-2,3,4,5-tetrahydro-1H-pyrido[4,3-b]indole] has an inhibition at 0.1 µM [1] of 69%, an inhibition at 0.1 µM [2] of 34% and an inhibition at 1 µM [3] of 57%. It also gave an inhibition at 1 µM [4] of 19%, an inhibition at 0.1 µM [5] of 44% and an inhibition at 0.1 µM [6] of 72%. For the same compound, the inhibition at 0.1 µM [7] was 41%.

Work on Cc1ccc2c(c1)c1c(n2-c2cccc(-c3ccnn3C)c2)CCN(C)C1 [Compound No. 66, 2,8-dimethyl-5-(3-(1-methyl-1H-pyrazol-5-yl)phenyl)-2,3,4,5-tetrahydro-1H-pyrido[4,3-b]indole] yielded an inhibition at 0.1 µM [1] of 36%, an inhibition at 0.1 µM [2] of 1% and an inhibition at 1 µM [3] of 43%. It also gave an inhibition at 1 µM [4] of 24%, an inhibition at 0.1 µM [5] of 30% and an inhibition at 0.1 µM [6] of 32%. It also gave an inhibition at 0.1 µM [7] of 8%.

For Cc1ccc2c(c1)c1c(n2-c2ccc(-c3ccnn3C)cn2)CCN(C)C1 [Compound No. 146, 2,8-dimethyl-5-(5-(1-methyl-1H-pyrazol-5-yl)pyridin-2-yl)-2,3,4,5-tetrahydro-1H-pyrido[4,3-b]indole], the inhibition at 0.1 µM [1] was 10%, the inhibition at 0.1 µM [2] was 33% and the inhibition at 1 µM [3] was 8%. It also gave an inhibition at 1 µM [4] of 5%, an inhibition at 0.1 µM [5] of -17% and an inhibition at 0.1 µM [6] of 16%. For the same compound, the inhibition at 0.1 µM [7] was -1%.
